Assay results: patent US7618787B2, “Method of screening compound capable of accelerating or inhibiting apoptosis, apoptosis accelarator and apoptosis inhibitor” (Hisamitsu Pharmaceutical Co., Inc., priority 2004, dated 2009)

How the values were obtained:
U2OS cells [1] = experiment: Cell survival assay (MTT) of cisplatin-exposed cells; assay type: cell-based, human; conditions: cisplatin 20 μM, time course (FIG. 1)
Experimental: U2OS cells were seeded at a density of 5×10^3 cells/well to a 96-well tissue culture dish supplemented with 100 μL of complete medium, and then allowed to adhere thereto overnight. A cisplatin stock solution was filtered and sterilized with a filter of 0.45 μm in pore size and diluted with phosphate-buffered saline (PBS). Cisplatin was added at the final concentration of 20 μM to the cultures, followed by cell viability assay. The viability was assayed by a modified 3-(4,5-dimethylthiazol-2-yl)-2,5-diphenyl-tetrazolium bromide (MTT) assay at given time points after the cisplatin addition. The MTT assay was performed by adding 10 μL of MTT solution to each well and incubating the cultures at 37° C. for 1 hour. A microplate reader (Model 450; Bio-Rad) was used to measure the absorbance of each well at 570 nm.

U2OS cells [2] = experiment: Immunoblot of nuclear and cytoplasmic fractions of U2OS cells treated with cisplatin; assay type: cell-based, human
Experimental: To prepare nuclear and cytoplasmic extracts, cells were washed with ice-cold PBS and suspended in lysis buffer (pH 7.5; which contained 10 mM Tris-Cl, 1 mM EDTA, 0.5% Nonidet P-40 (NP-40), 1 mM PMSF, and protease inhibitor mix (Sigma)). The suspended cells were incubated at 4° C. for 30 minutes and centrifuged at 5000 rpm for 10 minutes to collect soluble fractions (which were used as cytoplasmic extracts). Insoluble fractions were washed with lysis buffer and dissolved in 1×Laemmli SDS-sample buffer (pH 6.8; which contained 62.5 mM Tris-Cl, 2% SDS, 2% β-mercaptoethanol, and 0.01% bromophenol blue) to collect nuclear extracts. The nuclear and cytoplasmic fractions were subjected to immunoblot analysis using an anti-lamin B monoclonal (Ab-1; Oncogene Research Products) or anti-α-tubulin monoclonal (DM1A; Cell Signaling Technology) antibody. Nuclear and cytoplasmic extracts were prepared from cisplatin-exposed or untreated U2OS cells and subjected to immunoblot with a given antibody. The purity of the nuclear and cytoplasmic fractions was confirmed by immunoblot using anti-lamin B and anti-α-tubulin antibodies, respectively. In agreement with the previously reported results, IKK-α was localized in both the nucleus and the cytoplasm, whereas IKK-β was largely expressed in the cytoplasm (FIG. 4). The amounts of IKK-α, IKK-β, and IKK-γ in the cytoplasm were not changed regardless of cisplatin treatment.

U2OS cells [3] = experiment: RT-PCR analysis of RNA from U2OS cells treated with cisplatin; assay type: cell-based, human
Experimental: Total RNA was extracted from U2OS cells exposed to cisplatin (final concentration: 20 μM) by use of RNeasy Mini Kit (Qiagen) according to the manufacturer's protocol. Reverse transcription reaction was performed by mixing the total RNA (5 μg) with SuperScript II reverse transcriptase (Invitrogen) and random primers and incubating the mixture at 42° C. for 1 hour. After the completion of the reaction, cDNA was diluted with water and amplified with 15 μL of reaction solution (which contained 100 μM of each deoxynucleoside triphosphate, 1×PCR buffer, 1 μM of each primer, and 0.2 units of rTaq DNA polymerase (Takara Bio)). GAPDH expression was assayed and used as an internal standard. The PCR amplification products were separated by electrophoresis with 1.5% agarose gel in TAE buffer (40 mM Tris-Cl, 1 mM EDTA) and visualized with ethidium bromide (post-staining).

NF-κB [4] = experiment: NF-κB reporter luciferase assay in U2OS cells; assay type: cell-based, human; conditions: U2OS cells transfected with NF-κB reporter plasmid (FIG. 7)
Experimental: (§1) As described above, the amount of nuclear transactivating p65 subunit was not changed in U2OS cells treated with cisplatin. […] U2OS cells transfected with a NF-κB reporter plasmid were treated with cisplatin and assayed for their luciferase activities. […] L929 cells have been used widely for examining the TNF-α-dependent activation of NF-κB.

U2OS cells [5] = experiment: Immunoblot of cell lysates of U2OS cells treated with cisplatin; assay type: cell-based, human
Experimental: Cells were transiently transfected with a total of 2 μg of expression plasmids. After 48 hours of the transfection, the cells were washed with ice-cold PBS and suspended in lysis buffer (pH 8.0; which contained 25 mM Tris-Cl, 137 mM sodium chloride, 1% Triton X-100, 1 mM phenylmethylsulfonyl fluoride (PMSF), and protease inhibitor mix (Roche Molecular Biochemicals)), followed by brief sonication. After centrifugation at 15000 rpm for 10 minutes, the supernatant was collected and assayed for protein concentrations by the Bradford assay (Bio-Rad). Equal amounts of lysates (protein amount: 50 μg) from the whole cells were denatured by boiling in Laemmli SDS-sample buffer, then separated on 10% SDS-polyacrylamide gel (SDS-PAGE), and transferred at room temperature for 1 hour to polyvinylidene difluoride (PVDF) membranes (Immobilon-P; Millipore) in Tris-glycine buffer containing 10% methanol. The membranes were blocked at room temperature for 1 hour with Tris-buffered saline (TBS-T) containing 5% skim milk and 0.1% Tween 20. Then, the membranes were reacted with an anti-FLAG monoclonal (M2; Sigma), anti-HA monoclonal (12CA5; Roche Molecular Biochemicals), anti-p73 monoclonal (Ab-4; NeoMarkers), anti-p53 monoclonal (DO-1; Oncogene Research Products), anti-Bax monoclonal (6A7; eBioscience), anti-IKK-α polyclonal (M-280; Santa Cruz Biotechnology), anti-IKK-β polyclonal (H-470; Santa Cruz Biotechnology), anti-IKK-γ polyclonal (FL-417; Santa Cruz Biotechnology), anti-p65 polyclonal (C-20; Santa Cruz Biotechnology), anti-IκB-α polyclonal (C-21; Santa Cruz Biotechnology), anti-actin polyclonal (20-33, Sigma), or anti p21^WAF1 polyclonal (H-164; Santa Cruz Biotechnology) antibody used as a primary antibody. After the reaction with the primary antibody, the membranes were reacted at room temperature for 1 hour with a horseradish peroxidase (HRP)-labeled goat anti-mouse or anti-rabbit secondary antibody (Cell Signaling Technologies) diluted 2000-fold in TBS-T. Immunoreactive proteins were finally visualized by use of an enhanced chemiluminescence system (ECL; Amersham Pharmacia Biotech) according to the manufacturer's instruction.

L929 cells = experiment: Immunoblot of nuclear and cytoplasmic fractions of L929 cells; assay type: cell-based, mouse; conditions: L929 cells (FIG. 9)
Experimental: To prepare nuclear and cytoplasmic extracts, cells were washed with ice-cold PBS and suspended in lysis buffer (pH 7.5; which contained 10 mM Tris-Cl, 1 mM EDTA, 0.5% Nonidet P-40 (NP-40), 1 mM PMSF, and protease inhibitor mix (Sigma)). The suspended cells were incubated at 4° C. for 30 minutes and centrifuged at 5000 rpm for 10 minutes to collect soluble fractions (which were used as cytoplasmic extracts). Insoluble fractions were washed with lysis buffer and dissolved in 1×Laemmli SDS-sample buffer (pH 6.8; which contained 62.5 mM Tris-Cl, 2% SDS, 2% β-mercaptoethanol, and 0.01% bromophenol blue) to collect nuclear extracts. The nuclear and cytoplasmic fractions were subjected to immunoblot analysis using an anti-lamin B monoclonal (Ab-1; Oncogene Research Products) or anti-α-tubulin monoclonal (DM1A; Cell Signaling Technology) antibody.
as §1

NF-κB [6] = experiment: NF-κB reporter activation in L929 cells; assay type: cell-based, mouse; conditions: L929 cells (FIG. 8)
Experimental: as §1

With `N.N.[Cl][Pt][Cl]` [cisplatin] the “cell viability / apoptosis of U2OS cells” value (U2OS cells [1]) was “underwent apoptosis in a time-dependent manner”, the “cytoplasmic IκB-α” value (U2OS cells [2]; U2OS cytoplasmic fraction (FIG. 4)) was “decreased in a time-dependent manner” and the “nuclear accumulation of IKK-α” value (U2OS cells [2]; U2OS nuclear fraction (FIG. 4)) was “remarkably accumulated IKK-α in the nucleus in a time-dependent manner”. For the same compound, the “nuclear accumulation of p65-NF-κB subunit (RelA)” value (U2OS cells [2]; U2OS nuclear fraction (FIG. 4)) was “almost no effect on the nuclear accumulation of p65-NF-κB subunit”, the “expression of IKK-α and IKK-β mRNAs” value (U2OS cells [3]; cisplatin 20 μM (FIG. 3)) was “not changed” and the “expression of p53 and p73α mRNAs” value (U2OS cells [3]; cisplatin 20 μM (FIG. 3)) was “not induced”. The “expression level of IKK-γ mRNA” value (U2OS cells [3]; cisplatin 20 μM, time-dependent (FIG. 3)) was “remarkable increase”, the NF-κB-dependent transcriptional activation (NF-κB [4]) was “did not enhance NF-κB-dependent transcriptional activation” and the IKK-α protein level (U2OS cells [5]; 12 to 36 hours after cisplatin exposure (FIG. 2)) was “remarkably accumulated IKK-α”. For the same compound, the “IKK-γ (NEMO) protein level” value (U2OS cells [5]; after 12 hours of cisplatin treatment) was “transiently increased”, the “p53 and p73α protein levels” value (U2OS cells [5]; cisplatin exposure (FIG. 2)) was “remarkably induced at protein levels” and the “amount of IKK-β” value (U2OS cells [5]; cisplatin treatment) was “hardly changed the amount of IKK-β”. For the same compound, the “phosphorylated form of IκB-α” value (U2OS cells [5]; cisplatin treatment) was “remarkably increased the phosphorylated form of IκB-α”.

With TNF-α the “nuclear accumulation of p65” value (L929 cells) was “remarkably accumulated p65 in the nucleus” and the NF-κB-dependent transcriptional activation (NF-κB [6]) was “NF-κB-dependent transcriptional activation was observed after 2 hours”.
